Data taken from patent US20060194837A1, “Tetrahydroisoquinoline compounds” (priority 2004, published 2006).

Columns and labels:
human H3 receptor [1] = target: T1, human H3 receptor (Homo sapiens, UniProt Q9Y5N1); experiment: H3 receptor binding (N-[3H]-α-methylhistamine displacement); settings: membranes of SK-N-MC cells expressing cloned human H3 receptor, 0.8 nM N-[3H]-α-methylhistamine, 60 min at 25° C.
T1 construct: expressed in transfected cells

Rat SERT = target: T2, Rat SERT (Rattus norvegicus, UniProt P31652); experiment: Rat brain SERT binding ([3H]-citalopram displacement); settings: rat brain membranes without cerebellum, 0.6 nM [3H]-citalopram, 60 min at 25° C.; read-out: Rat SERT Ki
T2 construct: A rat brain without cerebellum (Zivic Laboratories, Inc.—Pittsburgh, Pa.) was homogenized; tissue Zivic Laboratories, Inc; host or cells: rat brain without cerebellum, membranes
T2 sequence (P31652 whole entry): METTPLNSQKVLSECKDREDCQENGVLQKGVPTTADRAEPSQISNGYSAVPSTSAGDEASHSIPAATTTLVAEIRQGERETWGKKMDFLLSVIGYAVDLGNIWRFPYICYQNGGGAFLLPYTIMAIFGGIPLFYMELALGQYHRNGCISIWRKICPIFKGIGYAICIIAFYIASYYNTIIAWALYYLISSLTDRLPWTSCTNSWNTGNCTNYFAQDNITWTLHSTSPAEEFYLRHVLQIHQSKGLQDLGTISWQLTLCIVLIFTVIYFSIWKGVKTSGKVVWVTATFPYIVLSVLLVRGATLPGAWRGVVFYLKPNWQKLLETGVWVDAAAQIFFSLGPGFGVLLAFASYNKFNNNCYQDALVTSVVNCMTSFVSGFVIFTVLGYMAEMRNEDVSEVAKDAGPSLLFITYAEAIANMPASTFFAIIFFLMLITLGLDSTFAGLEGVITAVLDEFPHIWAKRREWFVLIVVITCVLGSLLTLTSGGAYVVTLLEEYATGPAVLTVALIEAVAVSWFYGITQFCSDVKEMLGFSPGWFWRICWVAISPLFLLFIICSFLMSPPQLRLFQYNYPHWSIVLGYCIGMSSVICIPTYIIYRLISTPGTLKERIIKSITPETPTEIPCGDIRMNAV
Experimental: The supernatant was removed and re-centrifuged at 15,000 rpm for 30 min. […] Membranes were incubated with 0.6 nM [^3H]-Citalopram plus/minus test compounds for 60 min at 25° C. and harvested by rapid filtration over GF/C glass fiber filters (pretreated with 0.3% polyethylenimine) followed by four washes with ice-cold buffer.

human H3 receptor [2] = target: T1, human H3 receptor; experiment: Cyclic AMP accumulation (β-galactosidase reporter, Schild analysis); assay type: cell-based; settings: SK-N-MC cells expressing human H3 receptor and CRE-β-galactosidase reporter; histamine agonist, forskolin 5 μM; Schild regression of pEC50 values; read-out: pA2 (converted)
Experimental: Sublines of SK-N-MC cells were created that expressed a reporter construct and the human H3 receptor. The reporter gene (β-galactosidase) is under the control of multiple cyclic AMP responsive elements. In 96-well plates, histamine was added directly to the cell media followed 5 min later by an addition of forskolin (5 μM final concentration). When appropriate, antagonists were added 10 min prior to agonist addition. After a 6-h incubation at 37° C., the media was aspirated and the cells washed with 200 μL of phosphate-buffered saline followed by a second aspiration. Cells were lysed with 25 μL 0.1× assay buffer (10 mM Na-phosphate, pH 8, 0.2 mM MgSO4, 0.01 mM MnCl2) and incubated at rt for 10 min. […] Color was developed using 25 μL of 1 mg/mL substrate solution (chlorophenolred β-D galactopyranoside; Roche Molecular Biochemicals, Indianapolis, In.).

human SERT = target: T3, human SERT (Homo sapiens, UniProt P31645); experiment: Human SERT binding (3H-citalopram displacement); settings: HEK293 membranes expressing human SERT, rt 1 h
T3 construct: expressed in transfected cells; host or cells: HEK293 membranes
T3 sequence (P31645 whole entry): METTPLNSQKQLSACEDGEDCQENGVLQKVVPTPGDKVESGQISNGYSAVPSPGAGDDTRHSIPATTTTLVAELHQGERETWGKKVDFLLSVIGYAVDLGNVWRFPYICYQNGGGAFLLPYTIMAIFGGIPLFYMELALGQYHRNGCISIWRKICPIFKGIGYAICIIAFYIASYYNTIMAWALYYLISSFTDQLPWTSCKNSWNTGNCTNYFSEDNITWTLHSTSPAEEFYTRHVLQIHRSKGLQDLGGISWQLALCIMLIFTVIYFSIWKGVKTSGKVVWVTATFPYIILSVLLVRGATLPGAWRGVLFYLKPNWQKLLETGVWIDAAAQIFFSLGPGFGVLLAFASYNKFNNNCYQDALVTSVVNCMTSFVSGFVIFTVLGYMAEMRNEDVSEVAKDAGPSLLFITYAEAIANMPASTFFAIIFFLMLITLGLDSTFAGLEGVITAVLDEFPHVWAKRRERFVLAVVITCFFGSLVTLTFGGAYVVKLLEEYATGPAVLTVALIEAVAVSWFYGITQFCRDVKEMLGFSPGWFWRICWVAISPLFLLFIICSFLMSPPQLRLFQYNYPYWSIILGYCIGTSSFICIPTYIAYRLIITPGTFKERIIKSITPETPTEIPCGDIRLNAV
Experimental: Homogenized HEK293 (Human Embryonic Kidney) membranes expressing the human SERT were incubated with ^3H-citalopram (SERT) at rt for 1 h in 50 mM Tris, 120 mM NaCl, 5 mM KCl (pH 7.4). […] The membranes were washed and the radioactivity was counted as above.

T1 sequence (Q9Y5N1 whole entry): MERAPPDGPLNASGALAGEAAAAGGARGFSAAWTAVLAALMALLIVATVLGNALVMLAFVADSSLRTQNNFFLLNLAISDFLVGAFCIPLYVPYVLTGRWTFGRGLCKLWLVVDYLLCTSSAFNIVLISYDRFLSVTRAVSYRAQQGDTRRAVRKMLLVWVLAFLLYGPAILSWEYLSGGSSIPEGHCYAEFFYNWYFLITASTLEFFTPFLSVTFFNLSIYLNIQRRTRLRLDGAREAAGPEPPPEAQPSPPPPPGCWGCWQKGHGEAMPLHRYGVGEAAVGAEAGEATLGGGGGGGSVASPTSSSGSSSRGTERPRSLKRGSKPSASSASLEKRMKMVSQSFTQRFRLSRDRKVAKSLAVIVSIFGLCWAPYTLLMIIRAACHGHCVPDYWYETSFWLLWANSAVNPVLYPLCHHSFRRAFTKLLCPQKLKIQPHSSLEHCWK

| Ki (human H3 receptor [1]) [nM] | Ki (Rat SERT) [nM] | Kb (human H3 receptor [2]) [nM] | Ki (human SERT) [nM] | Structure (SMILES) |
| --- | --- | --- | --- | --- |
| 2 | 91 | 3.16 | – | CN1Cc2cc(OCCCN3CCOCC3)ccc2C(c2ccc([S+](C)[O-])cc2)C1 (single isomer, unassigned) [Example 165A, 4-(4-Methanesulfinyl-phenyl)-2-methyl-7-(3-morpholin-4-yl-propoxy)-1,2,3,4-tetrahydro-isoquinoline] |
| 11 | 11 | 7.94 | – | CSc1ccc(C2CN(C)Cc3cc(OCC4CN(C5CC5)CCO4)ccc32)cc1 (mixture of isomers) [Example 263, 7-(4-Cyclopropyl-morpholin-2-ylmethoxy)-2-methyl-4-(4-methylsulfanyl-phenyl)-1,2,3,4-tetrahydro-isoquinoline] |
| 8 | 7 | 6.31 | – | CCCN1CCC(COc2ccc3c(c2)CN(C)CC3c2ccc(OC)cc2)CC1 (stereo not drawn) [Example 85, 4-(4-Methoxy-phenyl)-2-methyl-7-(1-propyl-piperidin-4-ylmethoxy)-1,2,3,4-tetrahydro-isoquinoline] |
| 9 | 8 | 31.6 | – | CN1Cc2cc(OCCCN3CCC(F)CC3)ccc2C(c2ccc(Cl)c(Cl)c2)C1 (stereo not drawn) [Example 58, 4-(3,4-Dichloro-phenyl)-7-[3-(4-fluoro-piperidin-1-yl)-propoxy]-2-methyl-1,2,3,4-tetrahydro-isoquinoline] |
| 2 | 10 | – | 6 | COc1ccc(C2CN(C)Cc3cc(OC4CCN(C5CCOCC5)CC4)ccc32)cc1 (stereo not drawn) [Example 121, 4-(4-Methoxy-phenyl)-2-methyl-7-[1-(tetrahydro-pyran-4-yl)-piperidin-4-yloxy]-1,2,3,4-tetrahydro-isoquinoline] |
| 2 | 27 | – | 15 | C[C@H]1COCCN1CCCOc1ccc2c(c1)CN(C)CC2c1ccc(C#N)cc1 (stereo partly drawn) [Example 135, 4-{2-Methyl-7-[3-(3S-methyl-morpholin-4-yl)-propoxy]-1,2,3,4-tetrahydro-isoquinolin-4-yl}-benzonitrile] |
| 89 | 9 | – | 13 | COc1ccc(C2CN(C)Cc3cc(OCCCN4CCC(C#N)CC4)ccc32)cc1 (single isomer, unassigned) [Example 37A, 1-{3-[4-(4-Methoxy-phenyl)-2-methyl-1,2,3,4-tetrahydro-isoquinolin-7-yloxy]-propyl}-piperidine-4-carbonitrile] |
| 5 | 6 | – | 11 | COc1ccc(C2CN(C)Cc3cc(OC4CCN(CCF)CC4)ccc32)cc1 (stereo not drawn) [Example 152, 7-[1-(2-Fluoro-ethyl)-piperidin-4-yloxy]-4-(4-methoxy-phenyl)-2-methyl-1,2,3,4-tetrahydro-isoquinoline] |
| 2 | 2 | – | 3 | COc1ccc(C2CN(C)Cc3cc(OCCCN4CC[C@@H](O)C4)ccc32)cc1 (stereo partly drawn) [Example 31, 1-{3-[4-(4-Methoxy-phenyl)-2-methyl-1,2,3,4-tetrahydro-isoquinolin-7-yloxy]-propyl}-(R)-pyrrolidin-3-ol] |
| 594 | 27 | – | 18 | COc1ccc(C2CN(C)Cc3cc(OCCCN4CCN(C(=O)C(C)C)CC4)ccc32)cc1 (stereo not drawn) [Example 5, 1-(4-{3-[4-(4-Methoxy-phenyl)-2-methyl-1,2,3,4-tetrahydro-isoquinolin-7-yloxy]-propyl}-piperazin-1-yl)-2-methyl-propan-1-one] |
| 315 | 14 | – | 14 | COc1ccc(C2CN(C)Cc3cc(OCCCN4CCN(C(=O)C5CC5)CC4)ccc32)cc1 (stereo not drawn) [Example 7, Cyclopropyl-(4-{3-[4-(4-methoxy-phenyl)-2-methyl-1,2,3,4-tetrahydro-isoquinolin-7-yloxy]-propyl}-piperazin-1-yl)-methanone] |
| 2400 | 10 | – | 11 | COc1ccc(C2CN(C)Cc3cc(OCCCN4CCN(C(=O)c5cccn5C)CC4)ccc32)cc1 (stereo not drawn) [Example 13, (4-{3-[4-(4-Methoxy-phenyl)-2-methyl-1,2,3,4-tetrahydro-isoquinolin-7-yloxy]-propyl}-piperazin-1-yl)-(1-methyl-1H-pyrrol-2-yl)-methanone] |
| 2 | 28 | – | 30 | CN1Cc2cc(OCCCN3CCC(F)CC3)ccc2C(c2ccc(N3CCOCC3)cc2)C1 (stereo not drawn) [Example 134, 7-[3-(4-Fluoro-piperidin-1-yl)-propoxy]-2-methyl-4-(4-morpholin-4-yl-phenyl)-1,2,3,4-tetrahydro-isoquinoline] |
| 70 | 13 | – | 56 | COc1ccc(C2CN(C)Cc3cc(OCCCN4CCN(C(C)=O)CC4)ccc32)cc1 (stereo not drawn) [Example 2, 1-(4-{3-[4-(4-Methoxy-phenyl)-2-methyl-1,2,3,4-tetrahydro-isoquinolin-7-yloxy]-propyl}-piperazin-1-yl)-ethanone] |
| 22 | 5 | – | 6 | CSc1ccc(C2CN(C)Cc3cc(OC4CCN(C)CC4)ccc32)cc1 (stereo not drawn) [Example 243, 2-Methyl-7-(1-methyl-piperidin-4-yloxy)-4-(4-methylsulfanyl-phenyl)-1,2,3,4-tetrahydro-isoquinoline] |
| 273 | 10 | – | 7 | COCCN(CCCOc1ccc2c(c1)CN(C)CC2c1ccc(OC)cc1)CCOC (stereo not drawn) [Example 17, Bis-(2-methoxy-ethyl)-{3-[4-(4-methoxy-phenyl)-2-methyl-1,2,3,4-tetrahydro-isoquinolin-7-yloxy]-propyl}-amine] |
| 1 | 8 | – | 4 | CSc1ccc(C2CN(C)Cc3cc(OC4CCN(C(C)C)CC4)ccc32)cc1 (stereo not drawn) [Example 118, 7-(1-Isopropyl-piperidin-4-yloxy)-2-methyl-4-(4-methylsulfanyl-phenyl)-1,2,3,4-tetrahydro-isoquinoline] |
| 96 | 4 | – | 13 | COc1ccc(C2CN(C)Cc3cc(CCCCN4CCC(F)(F)CC4)ccc32)cc1 (stereo not drawn) [Example 280, 7-[4-(4,4-Difluoro-piperidin-1-yl)-butyl]-4-(4-methoxy-phenyl)-2-methyl-1,2,3,4-tetrahydro-isoquinoline] |
| 3 | 13 | – | 56 | CN1Cc2cc(OCCCN3CCC(F)CC3)ccc2C(c2ccccc2)C1 (stereo not drawn) [Example 124, 7-[3-(4-Fluoro-piperidin-1-yl)-propoxy]-2-methyl-4-phenyl-1,2,3,4-tetrahydro-isoquinoline] |
| 3 | 14 | – | 26 | CN1Cc2cc(OCCCN3CCC(F)CC3)ccc2C(c2cccc(Cl)c2)C1 (stereo not drawn) [Example 46, 4-(3-Chloro-phenyl)-7-[3-(4-fluoro-piperidin-1-yl)-propoxy]-2-methyl-1,2,3,4-tetrahydro-isoquinoline] |
| 6 | 4 | – | 12 | COc1ccc(C2CN(C)Cc3cc(OCCCN4CCOC[C@@H]4C)ccc32)c(F)c1 (stereo partly drawn) [Example 220, 4-(2-Fluoro-4-methoxy-phenyl)-2-methyl-7-[3-(3S-methyl-morpholin-4-yl)-propoxy]-1,2,3,4-tetrahydro-isoquinoline] |
| 8 | 2 | – | 2 | COc1ccc(C2CN(C)Cc3cc(OCCCN4CCN(C(C)C)CC4)ccc32)cc1 (stereo not drawn) [Example 199, 7-[3-(4-Isopropyl-piperazin-1-yl)-propoxy]-4-(4-methoxy-phenyl)-2-methyl-1,2,3,4-tetrahydro-isoquinoline] |
| 13 | 13 | – | 22 | COc1ccc(C2CN(C)Cc3cc(OCC4CN(C5CC5)CCO4)ccc32)cc1 (mixture of isomers) [Example 259, 7-(4-Cyclopropyl-morpholin-2-ylmethoxy)-4-(4-methoxy-phenyl)-2-methyl-1,2,3,4-tetrahydro-isoquinoline] |
| 315 | 5 | – | 9 | COc1ccc(C2CN(C)Cc3cc(C#CCCN4CCN(C(C)C)CC4)ccc32)cc1 (stereo not drawn) [Example 278, 7-[4-(4-Isopropyl-piperazin-1-yl)-but-1-ynyl]-4-(4-methoxy-phenyl)-2-methyl-1,2,3,4-tetrahydro-isoquinoline] |
| 8 | 6 | – | 7 | COc1ccc(C2CN(C)Cc3cc(OCC4CCN(CCF)CC4)ccc32)cc1 (stereo not drawn) [Example 116, 7-[1-(2-Fluoro-ethyl)-piperidin-4-ylmethoxy]-4-(4-methoxy-phenyl)-2-methyl-1,2,3,4-tetrahydro-isoquinoline] |
